Values of other authors as cited in patent US9387185B2, “N-ω-hydroxy-L-arginine derivatives for the treatment of diseases” (Christian-Albrechts-Universität Zu Kiel, priority 2009, dated 2016).

Columns and labels:
rats = details: i.v.
arginase I = biological target: T1, arginase I (Homo sapiens, UniProt P05089)
T1 sequence (P05089 1-322): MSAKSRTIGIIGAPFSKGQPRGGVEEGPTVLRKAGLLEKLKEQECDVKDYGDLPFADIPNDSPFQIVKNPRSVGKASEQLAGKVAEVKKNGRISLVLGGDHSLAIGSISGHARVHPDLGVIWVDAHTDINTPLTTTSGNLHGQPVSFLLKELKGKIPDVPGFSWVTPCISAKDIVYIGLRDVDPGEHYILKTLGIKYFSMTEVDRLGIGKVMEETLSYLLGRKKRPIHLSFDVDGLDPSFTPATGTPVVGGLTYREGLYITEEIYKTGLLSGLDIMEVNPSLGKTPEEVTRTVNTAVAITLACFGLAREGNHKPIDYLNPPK

Ki (arginase I): 30 to 42 µM
SMILES: N=C(NO)NCCC[C@H](N)C(=O)O [NOHA, N^ω-hydroxy-L-arginine]
effects for treating the erectile dysfunction, endothelial dysfunction and hypertension (rats): desired effects for treating the erectile dysfunction, endothelial dysfunction and hypertension could already be demonstrated
